{"source": "patent US20230150920A1", "about": "“SALTS AND SOLID FORMS OF 4-BROMO-2,5-DIMETHOXYPHENETHYLAMINE” (priority 2021, published 2023)", "key": {"[1]": {"experiment": "Dynamic vapor sorption/desorption (DVS), hygroscopicity", "format": "physicochemical", "experimental": "The active pharmaceutical ingredient (API), 4-bromo-2,5-dimethoxyphenethylamine hydrochloride, is characterized to evaluate its physical properties. The evaluation is performed by X-ray powder diffraction (XRPD), polarized light microscopy (PLM), differential scanning calorimetry (DSC), thermogravimetry (TG), dynamic vapor sorption/desorption (DVS), and/or solubility testing in organic solvents, water, and mixed solvent systems. XRPD data are used to assess crystallinity. PLM data are used to evaluate crystallinity and particle size/morphology. DSC data are used to evaluate melting point, thermal stability, and crystalline form conversion. TG data are used to evaluate if the API is a solvate or hydrate, and to evaluate thermal stability. DVS data are used to evaluate hygroscopicity of the API and if hydrates can be formed at high relative humidity.\nThe form characterized in FIGS. 1 and 2 is designated as Form A herein. […] A sharp endotherm at 238° C. in the DSC thermogram is attributed to melting."}, "[2]": {"experiment": "Dynamic vapor sorption (DVS) with XRPD of the post-DVS sample", "format": "physicochemical", "experimental": "Dynamic Vapor Sorption (DVS) analysis was carried out using a TA Instruments Q5000 Dynamic Vapor Sorption analyzer. The instrument was calibrated with standard weights and a sodium bromide standard for humidity. Approximately 10-25 mg of sample was loaded into a metal-coated quartz pan for analysis. The sample was analyzed at 25° C. with a maximum equilibration time of one hour in 10% relative humidity (RH) steps from 5 to 95% RH (adsorption cycle) and from 95 to 5% RH (desorption cycle). The movement from one step to the next occurred either after satisfying the equilibrium criterion of 0.01% weight change or, if the equilibrium criterion was not met, after one hour. The percent weight change values were calculated using Microsoft Excel.\n(§1) The DVS analysis was carried out using a TA Instruments Q5000 Dynamic Vapor Sorption analyzer. 13.5 mg of sample was loaded into a metal-coated quartz pan for analysis. After equilibration to 5% relative humidity (RH), the sample was analyzed at 25° C. in 10% RH steps from 5 to 95% RH (adsorption cycle) and from 95 to 5% RH (desorption cycle). The movement from one step to the next occurred either after satisfying the equilibrium criterion of 0.01% weight change in 5 minutes or, if the equilibrium criterion was not met, after 90 minutes. The percent weight change values are calculated using Microsoft Excel®.\nas §1, with “DVS analyses were” for “DVS analysis was”, “analyzer. Approximately 7-11” for “analyzer. 13.5”, “equilibration at” for “equilibration to”, “values were” for “values are”\nas §1, with “analyzer. Approximately 2” for “analyzer. 13.5”, “equilibration at” for “equilibration to”, “values were” for “values are”"}, "[3]": {"experiment": "Deliquescence at 75% RH at ambient temperature", "format": "physicochemical"}, "[4]": {"experimental": "Solubilities in water were estimated for the majority of the salts identified during screening. The experiments were carried out by adding water in aliquots to weighed portions of solid. […] Values are reported as “≥” if complete dissolution was observed upon the first aliquot."}, "[5]": {"experiment": "Estimated solubilities of 2C-B HCl in solvents", "conditions": "thermodynamic from solid"}, "[6]": {"experiment": "Solubility estimate by adding solvent aliquots to weighed solid, dissolution judged visually", "conditions": "thermodynamic from solid"}, "[7]": {"conditions": "MeOH/CHCl3 50/50, organic solvent or mixture"}, "[8]": {"conditions": "acetone, organic solvent or mixture"}, "[9]": {"conditions": "acetone/H2O 80/20, organic solvent or mixture"}}, "note": "Counter-ions that a name gives are not always drawn.", "data": [{"compound": "2C-B malate", "values": [{"measurement": "Water uptake (5-85% RH) %", "setting": "[1]; 5-85% RH part of sorption", "result": 0.6, "unit": "%"}, {"measurement": "Water uptake (85-95% RH) %", "setting": "[1]; 85-95% RH part of sorption", "result": "(5-85); 1 (85-95) %"}, {"measurement": "Hygroscopicity: weight gain", "setting": "[1]; <85% RH", "result": "RH: 0.6%"}, {"measurement": "Hygroscopicity: weight gain", "setting": "[1]; >85% RH", "result": "RH: 1.0% gain"}, {"measurement": "Hygroscopicity", "setting": "[1]; grade in words, from DVS", "result": "Slightly"}, {"measurement": "Water uptake (5-95% RH) %", "setting": "[1]; total, 5-95% RH", "result": 1.6, "unit": "%"}, {"measurement": "hygroscopicity based on DVS data", "setting": "[2]; 25° C., 5 to 95% RH", "result": "slightly hygroscopic"}, {"measurement": "moisture gain by DVS", "setting": "[2]; 25° C., adsorption 5 to 95% RH", "result": 1.6, "unit": "%"}, {"measurement": "moisture gain by DVS, equivalent moles of water", "setting": "[2]; 25° C., adsorption 5 to 95% RH", "result": "approximately 0.4 moles"}, {"measurement": "post-DVS XRPD result", "setting": "[2]; XRPD of the post-DVS sample", "result": "Consistent with Malate"}, {"measurement": "DVS desorption weight loss, 85-5% RH", "setting": "[2]; desorption 85-5% RH", "result": "85-5% RH: 0.6% loss"}, {"measurement": "DVS desorption weight loss, 95-85% RH", "setting": "[2]; desorption 95-85% RH", "result": "95-85% RH: 1.0% loss"}, {"measurement": "behaviour on desorption / form change by XRPD of post-DVS sample", "setting": "[2]; desorption 95 to 5% RH", "result": "all the gained moisture is lost without form change"}, {"measurement": "DVS desorption total loss", "setting": "[2]; desorption, total", "result": "Total loss: 1.6%"}, {"measurement": "DVS sorption weight gain, 5-85% RH", "setting": "[2]; sorption 5-85% RH", "result": "5-85% RH: 0.6% gain"}, {"measurement": "DVS sorption weight gain, 85-95% RH", "setting": "[2]; sorption 85-95% RH", "result": "85-95% RH: 1.0% gain"}, {"measurement": "DVS sorption total gain", "setting": "[2]; sorption, total", "result": "Total gain: 1.6%"}, {"measurement": "deliquescence", "setting": "[3]; at 75% RH", "result": "Did not deliquesce"}, {"measurement": "deliquescence", "setting": "[3]; several days at 75% RH at ambient temperature", "result": "not observed"}, {"measurement": "Kinetic water solubility", "setting": "[4]", "result": 6, "unit": "mg/mL"}, {"measurement": "estimated kinetic solubility in water", "setting": "[4]; room temperature, visually determined", "result": 6, "unit": "mg/mL"}, {"measurement": "aqueous solubility (kinetic)", "setting": "[4]; water, kinetic estimate", "result": 6, "unit": "mg/mL aqueous"}, {"measurement": "Estimated kinetic aqueous solubility", "setting": "[4]; water, room temperature, * = a few particulates/flakes remaining (see comments)", "result": 6, "unit": "mg/mL"}]}, {"compound": "COc1cc(CCN)c(OC)cc1Br.Cl", "note": "[2C-B HCl, 4-bromo-2,5-dimethoxyphenethylamine HCl]", "values": [{"measurement": "DVS Sorption: weight gain", "setting": "[1]; 5-95% RH", "result": "5-95% RH: 0.9% gain"}, {"measurement": "DVS Desorption: weight loss", "setting": "[1]; 95-5% RH", "result": "95-5% RH: 1.0% loss"}, {"measurement": "post-DVS XRPD", "setting": "[2]; solid form after DVS cycle", "result": "Form A"}, {"measurement": "solubility", "setting": "[5]; ACN, organic solvent or mixture", "result": "< 1", "unit": "mg/mL"}, {"measurement": "solubility", "setting": "[5]; EtOAc, organic solvent or mixture", "result": "< 2", "unit": "mg/mL"}, {"measurement": "solubility", "setting": "[5]; EtOH, organic solvent or mixture", "result": 13, "unit": "mg/mL"}, {"measurement": "solubility", "setting": "[5]; H2O, water", "result": 34, "unit": "mg/mL"}, {"measurement": "solubility", "setting": "[5]; IPA, organic solvent or mixture", "result": "< 2", "unit": "mg/mL"}, {"measurement": "solubility", "setting": "[5]; MeOH, organic solvent or mixture", "result": 41, "unit": "mg/mL"}, {"measurement": "solubility", "setting": "[5]; [7]", "result": 41, "unit": "mg/mL"}, {"measurement": "solubility", "setting": "[5]; THF, organic solvent or mixture", "result": "< 2", "unit": "mg/mL"}, {"measurement": "solubility", "setting": "[5]; [8]", "result": "< 2", "unit": "mg/mL"}, {"measurement": "solubility", "setting": "[5]; [9]", "result": "≥ 79", "unit": "mg/mL"}]}, {"compound": "COc1cc(CCN)c(OC)cc1Br", "note": "[2C-B.HCl, 4-bromo-2,5-dimethoxyphenethylamine hydrochloride]", "values": [{"measurement": "solubility", "setting": "[6]; [7]", "result": 41, "unit": "mg/mL"}, {"measurement": "solubility", "setting": "[6]; [8]", "result": "< 2", "unit": "mg/mL"}, {"measurement": "solubility", "setting": "[6]; [9]", "result": "> 79", "unit": "mg/mL"}, {"measurement": "solubility", "setting": "[6]; acetonitrile, organic solvent or mixture", "result": "< 1", "unit": "mg/mL"}, {"measurement": "solubility", "setting": "[6]; ethanol, organic solvent or mixture", "result": 13, "unit": "mg/mL"}, {"measurement": "solubility", "setting": "[6]; ethyl acetate, organic solvent or mixture", "result": "< 2", "unit": "mg/mL"}, {"measurement": "solubility", "setting": "[6]; isopropanol, organic solvent or mixture", "result": "< 2", "unit": "mg/mL"}, {"measurement": "solubility", "setting": "[6]; methanol, organic solvent or mixture", "result": 41, "unit": "mg/mL"}, {"measurement": "solubility", "setting": "[6]; tetrahydrofuran, organic solvent or mixture", "result": "< 2", "unit": "mg/mL"}, {"measurement": "solubility", "setting": "[6]; water", "result": 34, "unit": "mg/mL"}]}]}
